Among the test systems are SN12C renal; M14 melanoma; NCI-H226 lung; UO-31 renal; SF-539 CNS; OVCAR-5 ovarian; A549 NSCLC; MOLT-4 leukemia; OVCAR-3 ovarian; A498 renal; UACC-62 melanoma.
Test in all cases: DTP human tumour cell line panel, 48 h

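Protocol summary: plate cells (96-well), add compound at 5 concentrations, incubate 48 h, interpolate endpoints linearly. GI50 = concentration required for 50% inhibition of growth. Definition used: TGI = concentration required for complete inhibition of growth.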

In the case of `O=C1CSC(=S)N1`, the TGI in the experiment on SN12C renal, in the experiment on M14 melanoma, in the experiment with NCI-H226 lung, in the experiment on UO-31 renal, with SF-539 CNS and with OVCAR-5 ovarian was more than 100 µM in each case. Also, the total growth inhibition concentration (TGI) with A549 NSCLC, in the experiment on MOLT-4 leukemia and with OVCAR-3 ovarian was more than 100 µM throughout.
Turning to `Cc1ccc2c(c1)C(=O)N(N(C)C)CC(=O)N2`, the TGI with A498 renal, in the experiment with M14 melanoma, in the experiment with NCI-H226 lung, in the experiment on UO-31 renal, in the experiment with SF-539 CNS and in the experiment on OVCAR-5 ovarian was more than 100 µM in each case. The TGI with A549 NSCLC, in the experiment on UACC-62 melanoma, in the experiment on MOLT-4 leukemia and with OVCAR-3 ovarian was more than 100 µM each time.
For the compound `Fc1ccc(C2CC(c3cccc(Nc4ccncc4)c3)=NN2c2ccc(Cl)cc2)cc1` (centres undefined), the GI50 is 1670 nM in the experiment with SN12C renal; 1150 nM in the experiment on A498 renal; 1770 nM in the experiment on M14 melanoma; 1420 nM with UO-31 renal; 1650 nM in the experiment on SF-539 CNS; 1810 nM in the experiment with OVCAR-5 ovarian. In addition, the GI50 was 1730 nM in the experiment with UACC-62 melanoma, 2120 nM in the experiment on MOLT-4 leukemia and 1620 nM in the experiment with OVCAR-3 ovarian. The TGI in the experiment on SN12C renal came to 3.16 µM; in the experiment with A498 renal, 4.62 µM; in the experiment on M14 melanoma, 3.38 µM; with UO-31 renal it was 2.76 µM; in the experiment on SF-539 CNS, 3.07 µM; with OVCAR-5 ovarian, 4.05 µM. For the same compound, the results for the TGI in the experiment with UACC-62 melanoma, with MOLT-4 leukemia and with OVCAR-3 ovarian were 3.19 µM, 5.33 µM and 3.07 µM, respectively.
For `CC(=O)OCC1=C(C(=O)O)N2C(=O)C(NC(=O)CSc3ccncc3)C2SC1` (centres undefined), the TGI in the experiment with SN12C renal, with A498 renal, in the experiment with M14 melanoma, in the experiment on NCI-H226 lung, in the experiment with UO-31 renal and with SF-539 CNS was more than 100 µM each time. Also, the TGI in the experiment with OVCAR-5 ovarian, in the experiment on A549 NSCLC, in the experiment with UACC-62 melanoma, in the experiment on MOLT-4 leukemia and in the experiment with OVCAR-3 ovarian was more than 100 µM each time.
With `CC1CCC2(O)C3(C)CC4(O)OC2(C1O)C1(O)C3(O)C(OC(=O)c2ccc[nH]2)C(O)(C(C)C)C41C` (centres undefined), the TGI with SN12C renal, in the experiment with A498 renal, with M14 melanoma, in the experiment with NCI-H226 lung, with UO-31 renal and in the experiment with SF-539 CNS was more than 100 µM in each case. The TGI in the experiment on OVCAR-5 ovarian, with A549 NSCLC, in the experiment with UACC-62 melanoma, in the experiment with MOLT-4 leukemia and in the experiment on OVCAR-3 ovarian was more than 100 µM in each case.
With `O=C1Nc2ccccc2C1=Nc1cccc2ncccc12`, the TGI with SN12C renal, in the experiment on A498 renal, with M14 melanoma, in the experiment with NCI-H226 lung, with UO-31 renal and in the experiment on SF-539 CNS was more than 100 µM each time. Also, the TGI with OVCAR-5 ovarian, in the experiment with A549 NSCLC, in the experiment on UACC-62 melanoma, with MOLT-4 leukemia and in the experiment on OVCAR-3 ovarian was more than 100 µM throughout.
For the compound `CCOC(=O)NC(Nc1ncccn1)(C(=O)OCC)C(F)(F)F` (centres undefined), the TGI in the experiment on SN12C renal, in the experiment on M14 melanoma, in the experiment on UO-31 renal, in the experiment with SF-539 CNS, with OVCAR-5 ovarian and in the experiment with A549 NSCLC was more than 100 µM in each case. Further, the TGI in the experiment on UACC-62 melanoma, in the experiment on MOLT-4 leukemia and with OVCAR-3 ovarian was more than 100 µM in each case.
Turning to `CC(C)(C)[Si](C)(C)OCC1OC(n2cnc3c(N)ncnc32)CC1O` (centres undefined), the TGI with SN12C renal, with A498 renal, with M14 melanoma, with NCI-H226 lung, in the experiment with UO-31 renal and with OVCAR-5 ovarian was more than 100 µM in each case. Moreover, the TGI with UACC-62 melanoma, with MOLT-4 leukemia and in the experiment with OVCAR-3 ovarian was more than 100 µM each time.
Take `c1coc(CNc2ncnc3[nH]ncc23)c1`: the TGI with SN12C renal, in the experiment with A498 renal, with M14 melanoma, in the experiment on NCI-H226 lung, in the experiment with UO-31 renal and with SF-539 CNS was more than 100 µM in each case. Also, the TGI in the experiment with OVCAR-5 ovarian, with A549 NSCLC, with UACC-62 melanoma, with MOLT-4 leukemia and in the experiment with OVCAR-3 ovarian was more than 100 µM in each case.
Regarding `N#CN=[N+]([O-])c1ccc(C(=O)O)cc1`, the TGI in the experiment with M14 melanoma was 34 µM; in the experiment with NCI-H226 lung, 40.9 µM; with UO-31 renal it was 30.3 µM; in the experiment with SF-539 CNS, 32.4 µM; in the experiment with OVCAR-5 ovarian it was 34.7 µM; with A549 NSCLC, more than 100 µM. The figures for the TGI with UACC-62 melanoma and in the experiment on OVCAR-3 ovarian were 31.4 µM and 29.7 µM, respectively.
With `Cc1cc(C)n(-c2nsc3ccccc23)n1`, the TGI in the experiment with SN12C renal, with M14 melanoma, in the experiment on UO-31 renal, in the experiment with SF-539 CNS, in the experiment with OVCAR-5 ovarian and in the experiment with A549 NSCLC was more than 100 µM in each case. Besides, the TGI in the experiment on UACC-62 melanoma, with MOLT-4 leukemia and in the experiment with OVCAR-3 ovarian was more than 100 µM each time.
As to `C/C(N=NS(=O)(=O)c1ccccc1)=C1\C=CC=CN1O`, the TGI with SN12C renal, with A498 renal, in the experiment on M14 melanoma, with UO-31 renal, with SF-539 CNS and in the experiment with OVCAR-5 ovarian was more than 100 µM throughout. Moreover, the TGI in the experiment with A549 NSCLC, in the experiment on UACC-62 melanoma, with MOLT-4 leukemia and with OVCAR-3 ovarian was more than 100 µM each time.
As to `CSc1nc(NC2OCC(O)C(O)C2O)c(N)c(=O)[nH]1` (centres undefined), the TGI with SN12C renal, with A498 renal, with NCI-H226 lung, in the experiment on UO-31 renal, with SF-539 CNS and in the experiment with OVCAR-5 ovarian was more than 100 µM in each case. The TGI in the experiment on A549 NSCLC, with UACC-62 melanoma, in the experiment with MOLT-4 leukemia and with OVCAR-3 ovarian was more than 100 µM in each case.
As to `NCCCOc1ccc([N+](=O)[O-])cc1Cl`, the TGI with M14 melanoma, with NCI-H226 lung, in the experiment on UO-31 renal, in the experiment on SF-539 CNS, in the experiment with OVCAR-5 ovarian and in the experiment with A549 NSCLC was more than 100 µM in each case. Moreover, the TGI in the experiment with UACC-62 melanoma, in the experiment on MOLT-4 leukemia and in the experiment with OVCAR-3 ovarian was more than 100 µM in each case.
As for `O=C1NC2=C(CCCC/C2=N\O)C12CCCCC2`, the TGI with SN12C renal, with A498 renal, in the experiment with M14 melanoma, in the experiment on NCI-H226 lung, with UO-31 renal and with SF-539 CNS was more than 100 µM each time. Further, the TGI with OVCAR-5 ovarian, in the experiment with A549 NSCLC, with UACC-62 melanoma, in the experiment with MOLT-4 leukemia and in the experiment with OVCAR-3 ovarian was more than 100 µM in each case.
Take `Brc1ccc(C2CC(c3cccc4ccccc34)=Nc3ccccc3S2)cc1` (centres undefined): the TGI in the experiment on SN12C renal, in the experiment with A498 renal, with M14 melanoma, in the experiment with NCI-H226 lung, with UO-31 renal and in the experiment with SF-539 CNS was more than 100 µM throughout. Further, the TGI in the experiment on OVCAR-5 ovarian, with A549 NSCLC, in the experiment on UACC-62 melanoma and in the experiment with MOLT-4 leukemia was more than 100 µM in each case.
`OCCOCCN1CCN(CCCN2c3ccccc3Sc3ccc(C(F)(F)F)cc32)CC1`: the TGI with SN12C renal amounted to 26.7 µM; in the experiment on A498 renal, 22.6 µM; in the experiment on M14 melanoma, 5.39 µM; with NCI-H226 lung it was 37.2 µM; with UO-31 renal, 20.6 µM; in the experiment on SF-539 CNS, 25.9 µM. Also, the TGI is 27.3 µM in the experiment with OVCAR-5 ovarian; 27.1 µM in the experiment on A549 NSCLC; 19.5 µM in the experiment with UACC-62 melanoma; 29.8 µM with MOLT-4 leukemia; 33 µM in the experiment on OVCAR-3 ovarian.
Take `CCN(CC)CCNc1ccc2nnn3c4ccc(C)cc4c(=O)c1c23`: the TGI in the experiment on SN12C renal stood at 22.3 µM; with A498 renal, 29.3 µM; in the experiment with M14 melanoma, 26.4 µM; in the experiment with NCI-H226 lung, 23.9 µM; in the experiment on UO-31 renal, 22.2 µM; in the experiment with SF-539 CNS, 18.7 µM. Besides, the total growth inhibition concentration (TGI) in the experiment with OVCAR-5 ovarian came out at 21.4 µM; in the experiment with A549 NSCLC it was 19.3 µM; in the experiment on UACC-62 melanoma, 27.1 µM; with MOLT-4 leukemia, 12.2 µM; in the experiment on OVCAR-3 ovarian, 29.9 µM.
Regarding `COc1ccc2nc3cc(Cl)ccc3c(NCCNC(=O)Cn3c(=O)n(C)c(=O)c4c3nc3c(c(=O)n(C)c(=O)n3C)[n+]4[O-])c2c1`, the TGI in the experiment with SN12C renal was more than 100 µM; in the experiment with A498 renal, 98.8 µM; in the experiment on M14 melanoma, more than 100 µM; in the experiment with NCI-H226 lung it was more than 80.1 µM; in the experiment on UO-31 renal, more than 100 µM; with SF-539 CNS, more than 65 µM. Further, the TGI was more than 100 µM with OVCAR-5 ovarian; more than 100 µM in the experiment with A549 NSCLC; more than 52.9 µM in the experiment on UACC-62 melanoma; more than 90.8 µM in the experiment with MOLT-4 leukemia; more than 100 µM with OVCAR-3 ovarian.

Broadly, the TGI is the concentration giving total growth inhibition. Usually GI50 stands for the concentration at which growth is held to half of that of the control.

The values above are taken from PubChem BioAssay (NCI).
